Results taken from patent US20220168293A1, “TIME TO RESOLUTION OF AXITINIB-RELATED ADVERSE EVENTS” (PFIZER INC., priority 2020, published 2022).
Like-named read-outs stand apart in the source and are kept apart here.

Tests used:
[1] = cited from earlier work
[2] = Time to resolution (TTR) of AEs after treatment interruption or discontinuation, pooled cohorts; type: in vivo, human
Experimental: Five of the most common AEs associated with axitinib treatment were assessed: diarrhea; fatigue; hypertension; nausea; and palmar-plantar erythrodysesthesia syndrome (PPE). Incidences of treatment-emergent AEs were taken from the full published articles for each study. AEs were classified and graded per the Common Terminology Criteria for Adverse Events version 3.0 or the National Cancer Institute Common Terminology Criteria for Adverse Events version 4.03, as used in each individual study. Incidences of AEs were reported for any grade and for grade ≥3.

[3] = Action taken for each occurrence of each AE by pooled treatment cohort; settings: occurrences of the AE
Experimental: To determine the TTR for each of the AEs, data were pooled for different treatment cohorts as follows: patients who received axitinib monotherapy (axitinib monotherapy cohort); patients who received axitinib in combination with IO therapy (axitinib+10 cohort); and patients in comparator treatment arms who received another TKI as monotherapy, i.e., sorafenib or sunitinib (other TKI cohort). TTR was calculated for all causality, treatment-emergent AEs. For each AE reported for patients in each pooled cohort, the action taken on presentation of the AE was documented. […] TTR was determined for AEs of any grade and for grade Data were descriptive only; no statistical comparisons were made.
Action taken was determined as ‘not applicable’ when the associated drug was already permanently discontinued when the AE occurred.

[4] = AEs of any grade, after treatment interruption or discontinuation
[5] = AEs of grade 3 or higher (FIG. 2)
[6] = drug already permanently discontinued

CCN(CC)CCNC(=O)c1c(C)[nH]c(/C=C2\C(=O)Nc3ccc(F)cc32)c1C [Sunitinib, sunitinib]
half-life ([1]; in vivo): 40 to 60 h

CNC(=O)c1ccccc1Sc1ccc2c(/C=C/c3ccccn3)n[nH]c2c1 [Axitinib, axitinib]
median (IQR) TTR, PPE [2, 4]: 3 (3-5) days
median (IQR) TTR, diarrhea [2, 4]: 3 (1-6) days
median (IQR) TTR, hypertension [2, 4]: 1 (1-3) days
median (IQR) TTR, nausea [2, 4]: 3 (1-7) days
median (IQR) TTR, fatigue ([2]; AEs of any grade, after treatment interruption or discontinuation, listed as INLYTA monotherapy): 8 days
median (IQR) TTR, fatigue ([2]; AEs of any grade, after treatment interruption or discontinuation, listed as axitinib monotherapy): 8 (4-16) days
median (IQR) TTR, PPE [2, 5]: 3 (1-6) days
median (IQR) TTR, diarrhea [2, 5]: 3 (2-6) days
median (IQR) TTR, hypertension [2, 5]: 2 (1-8) days
median (IQR) TTR, nausea [2, 5]: 4 (2-15) days
median (IQR) TTR, fatigue ([2]; AEs of grade 3 or higher (FIG. 2), listed as INLYTA monotherapy): 8 days
median (IQR) TTR, fatigue ([2]; AEs of grade 3 or higher (FIG. 2), listed as axitinib monotherapy): 8 (5-16) days
Median TTR for adverse reactions, except for fatigue (range of medians) ([2]; all grade): 1 to 3 days
Median TTR for adverse reactions, except for fatigue (range of medians) ([2]; grade 3 or higher): 2 to 4 days
half-life ([1]; after a single 5 mg dose): 2.5 to 6.1 h
Diarrhea, action taken: Stopped temporarily and reduced [3]: 0 n
Diarrhea, action taken: Unknown [3]: 0 n
Fatigue, action taken: Stopped temporarily and reduced [3]: 0 n
Fatigue, action taken: Unknown [3]: 0 n
Hypertension, action taken: Stopped temporarily and reduced [3]: 0 n
Hypertension, action taken: Unknown [3]: 0 n
Nausea, action taken: Permanently discontinued [3]: 0 n
Nausea, action taken: Stopped temporarily and reduced [3]: 0 n
Nausea, action taken: Unknown [3]: 0 n
PPE, action taken: Stopped temporarily and reduced [3]: 0 n
PPE, action taken: Unknown [3]: 0 n
Diarrhea, action taken: Not applicable [3, 6]: 0 n
Fatigue, action taken: Not applicable [3, 6]: 0 n
Hypertension, action taken: Not applicable [3, 6]: 0 n
Nausea, action taken: Not applicable [3, 6]: 0 n
PPE, action taken: Not applicable [3, 6]: 0 n

COc1cc2nccc(Oc3ccc(NC(=O)C4(C(=O)Nc5ccc(F)cc5)CC4)cc3)c2cc1OC [cabozantinib]
half-life ([1]; in vivo): ~99 h

COc1cc2nccc(Oc3ccc(NC(=O)NC4CC4)c(Cl)c3)c2cc1C(N)=O [lenvatinib]
half-life ([1]; in vivo): ~28 h

CNC(=O)c1cc(Oc2ccc(NC(=O)Nc3ccc(Cl)c(C(F)(F)F)c3)cc2)ccn1 [Sorafenib, sorafenib]
half-life ([1]; in vivo): 25 to 48 h
